Experimental data: publication PMC10458471, “Electrophysiological Assessment of Newly Synthesized 2,3-Benzodiazepine Derivatives for Inhibiting the AMPA Receptor Channel” (Molecules, 2023)
pIC50: −log10 of the molar value. Like-named read-outs stand apart in the source and are kept apart here.

Columns and labels:
Type in all cases: cell-based
GluA2 = biological target: T1, GluA2 (Rattus norvegicus, UniProt P19491); experiment: Whole-cell patch-clamp recording of homomeric GluA2 AMPAR expressed in HEK293T cells; settings: for Amplitude with compound: 10 mM glutamate + 16 µM compound, mean±SEM; for Amplitude with compound / pIC50: -60 mV, pH 7.4, 22 °C; for Amplitude with compound / A/AI (current amplitude ratio without/with compound) / t deact (weighted deactivation time constant) / t des (weighted desensitization time constant) / Amplitude, applying glutamate alone after compound: n=8; for A/AI (current amplitude ratio without/with compound): 10 mM glutamate, 16 µM compound; for t deact (weighted deactivation time constant): 1 ms 10 mM glutamate + 16 µM compound; for t des (weighted desensitization time constant): 500 ms 10 mM glutamate + 16 µM compound; for IC50: log of IC50, read-out: Log IC50 (converted); for pIC50: normalized peak current, read-out: IC50; for Amplitude, applying glutamate alone after compound: washout/recovery
T1 construct: expressed in transfected cells; host or cells: HEK293T
Protocol: (§1) For the DNA preparation, the QIAGEN Plasmid Mini Kit was used to prepare up to 20 µg of high-copy plasmid DNA [30]. All AMPAR subunits utilized in this study included the flip isoform received from S. F. Heinemann (Salk Institute, La Jolla, CA, USA) and sub-cloned in pRK for expression in Human Embryonic Kidney Cells 293 (HEK293T). The human embryonic kidney (HEK293T) cells were obtained from Sigma, Taufkirchen, Germany, and we only used the HEK293T cell line due to their ease of growth and transfection and wide utilization in cell culture. For the transfection, we used the constructs GluA1, GluA2, GluA2/3, and GluA1/2, along with the GFP-expressing construct, as described in our previous work. The transfection reagents utilized were jetPRIME (Polyplus: New York, NY, USA) or Lipofectamine 2000 (Invitrogen; San Diego, CA, USA). The highly fluorescent cells were identified and selected for recording. The selected cells were seeded in Dulbecco Modified Eagle Medium (DMEM) (Sigma, Roedermark, Germany) containing 10% FBS, 0.1 mg/mL streptomycin, and 1 mM sodium pyruvate (Biological Industries; Beit-Haemek, Israel). The cells were incubated at 37 °C with 5% CO2 added to the medium and subcultured twice a week until they reached passage #20. Following a day and a half, the cells were replated on coverslips covered with Laminin (1 mg/mL; Sigma, Roedermark, Germany) for electrophysiological recordings. Our previous work has detailed the DNA preparation, cDNA transient transfection, and cell culture of HEK293T [30, 31, 32, 33].
(§2) After that, a patch was placed in front of a rapid perfusion system comprised of a theta tube flow pipe mounted on a piezoelectric translator that was used to wash the cell continuously from one barrel while the other supplied the compound of interest to the cell. Recordings were conducted 36–48 h after transfection at 22 °C, with a membrane potential of −60 mV. Currents were amplified using an integrated patch amplifier (IPA, Sutter Instruments, Novato, CA, USA), filtered at 2 kHz, and digitized at 10 kHz using SutterPatch Software v. 1.1.1 [46]. […] The extracellular medium contained (in mM): 150 NaCl, 2.8 KCl, 0.5 MgCl2, 2 CaCl2, and 10 HEPES, pH 7.4 adjusted with NaOH. The holding potential was typically −60 mV. The sample size was determined to be eight viable cells to calculate the mean inhibition of the derivative of interest. The solution exchange time (10–90% to peak) was estimated at […] using open-tip control at the end of a recording. Inhibition was calculated by comparing the current observed when the cell was supplied with glutamate alone and when the same cell was supplied with both glutamate and the 2,3-BDZ compounds. The initial tube containing only glutamate was reintroduced to the cell to ensure cellular safety and authenticate the antagonist’s findings. This step ensured that the glutamate-induced current observed before the administration of the antagonist was nearly indistinguishable from the current observed after administration.
(§3) The experiment served two purposes: first, determining the whole-cell current amplitude ratio in the absence and presence of the compounds (A/AI) to derive a constant inhibitory value independent of the rate measurement. Second, as an independent control method, a fast exchange solution flow methodology was employed using piezoelectric actuators, providing the fastest exchange solution with open-tip current rise times in the 100–300 μs range to assess the amplitude of the whole-cell current. Detailed data analysis of this process is provided in the supporting information (Tables S1–S4).
(§4) The data acquired were analyzed using Igor Pro7 (Wave Metrics, Inc., Portland, OR, USA). Receptor desensitization (τw des) and deactivation rates were estimated by fitting the current decay starting from 95% of the peak to the baseline current using a double exponential formulation. […]

GluA1 = biological target: T2, GluA1 (Rattus norvegicus, UniProt P19490); experiment: Whole-cell patch-clamp recording of homomeric GluA1 AMPAR expressed in HEK293T cells; settings: for Amplitude with compound: 10 mM glutamate + 16 µM compound, mean±SEM; for Amplitude with compound / pIC50: -60 mV, pH 7.4, 22 °C; for Amplitude with compound / A/AI (current amplitude ratio without/with compound) / t deact (weighted deactivation time constant) / t des (weighted desensitization time constant) / Amplitude, applying glutamate alone after compound: n=8; for A/AI (current amplitude ratio without/with compound): 10 mM glutamate, 16 µM compound; for t deact (weighted deactivation time constant): 1 ms 10 mM glutamate + 16 µM compound; for t des (weighted desensitization time constant): 500 ms 10 mM glutamate + 16 µM compound; for IC50: log of IC50, read-out: Log IC50 (converted); for pIC50: normalized peak current, read-out: IC50; for Amplitude, applying glutamate alone after compound: washout/recovery
T2 construct: expressed in transfected cells; host or cells: HEK293T
Protocol: as §1, §2, §3, §4

GluA1/2 = biological target: T3, GluA1/2 (Rattus norvegicus, UniProt P19490+P19491); experiment: Whole-cell patch-clamp recording of heteromeric GluA1/2 AMPAR expressed in HEK293T cells; settings: for Amplitude with compound: 10 mM glutamate + 16 µM compound, mean±SEM; for Amplitude with compound / pIC50: -60 mV, pH 7.4, 22 °C; for Amplitude with compound / A/AI (current amplitude ratio without/with compound) / t deact (weighted deactivation time constant) / t des (weighted desensitization time constant) / Amplitude, applying glutamate alone after compound: n=8; for A/AI (current amplitude ratio without/with compound): 10 mM glutamate, 16 µM compound; for t deact (weighted deactivation time constant): 1 ms 10 mM glutamate + 16 µM compound; for t des (weighted desensitization time constant): 500 ms 10 mM glutamate + 16 µM compound; for IC50: log of IC50, read-out: Log IC50 (converted); for pIC50: normalized peak current, read-out: IC50; for Amplitude, applying glutamate alone after compound: washout/recovery
T3 construct: expressed in transfected cells; host or cells: HEK293T
Protocol: as §1, §2, §3, §4

GluA2/3 = biological target: T4, GluA2/3 (Rattus norvegicus, UniProt P19491+P19492); experiment: Whole-cell patch-clamp recording of heteromeric GluA2/3 AMPAR expressed in HEK293T cells; settings: for Amplitude with compound: 10 mM glutamate + 16 µM compound, mean±SEM; for Amplitude with compound / pIC50: -60 mV, pH 7.4, 22 °C; for Amplitude with compound / A/AI (current amplitude ratio without/with compound) / t deact (weighted deactivation time constant) / t des (weighted desensitization time constant) / Amplitude, applying glutamate alone after compound: n=8; for A/AI (current amplitude ratio without/with compound): 10 mM glutamate, 16 µM compound; for t deact (weighted deactivation time constant): 1 ms 10 mM glutamate + 16 µM compound; for t des (weighted desensitization time constant): 500 ms 10 mM glutamate + 16 µM compound; for IC50: log of IC50, read-out: Log IC50 (converted); for pIC50: normalized peak current, read-out: IC50; for Amplitude, applying glutamate alone after compound: washout/recovery
T4 construct: expressed in transfected cells; host or cells: HEK293T
Protocol: as §1, §2, §3, §4

AMPA receptor subunits = experiment: Whole-cell patch-clamp recording, statements over all tested AMPAR subunits (GluA1, GluA1/2, GluA2, GluA2/3) in HEK293T cells; settings: 16 µM compound; for Effect on deactivation rate of the AMPAR subunits examined: 1 ms glutamate
Protocol: as §1, §2, §3, §4

T2 sequence (P19490 19-907 isoform P19490-2 limits assumed): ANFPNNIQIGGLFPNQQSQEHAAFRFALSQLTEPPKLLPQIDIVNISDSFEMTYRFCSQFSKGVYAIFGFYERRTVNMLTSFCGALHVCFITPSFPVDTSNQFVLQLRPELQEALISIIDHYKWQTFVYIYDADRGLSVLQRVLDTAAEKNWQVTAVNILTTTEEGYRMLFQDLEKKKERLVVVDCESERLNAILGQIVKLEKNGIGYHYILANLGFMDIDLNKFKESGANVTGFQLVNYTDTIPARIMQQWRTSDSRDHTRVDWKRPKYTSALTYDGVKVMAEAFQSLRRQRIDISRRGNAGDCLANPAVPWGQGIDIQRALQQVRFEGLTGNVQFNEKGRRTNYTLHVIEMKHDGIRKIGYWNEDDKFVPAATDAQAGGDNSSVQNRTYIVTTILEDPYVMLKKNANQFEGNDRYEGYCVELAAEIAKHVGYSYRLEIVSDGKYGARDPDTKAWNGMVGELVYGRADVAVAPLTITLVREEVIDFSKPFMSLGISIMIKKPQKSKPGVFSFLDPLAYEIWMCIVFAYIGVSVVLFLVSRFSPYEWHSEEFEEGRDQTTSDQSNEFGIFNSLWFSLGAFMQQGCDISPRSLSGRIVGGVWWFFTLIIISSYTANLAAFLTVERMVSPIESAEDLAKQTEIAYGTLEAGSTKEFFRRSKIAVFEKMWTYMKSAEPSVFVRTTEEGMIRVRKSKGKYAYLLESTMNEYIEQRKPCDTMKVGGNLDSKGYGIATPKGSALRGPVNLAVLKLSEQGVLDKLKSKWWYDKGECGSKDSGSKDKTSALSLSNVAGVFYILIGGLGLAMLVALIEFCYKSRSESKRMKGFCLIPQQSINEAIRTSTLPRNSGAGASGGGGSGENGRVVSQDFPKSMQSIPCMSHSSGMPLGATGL
T3 sequence (P19490 19-907 isoform P19490-2 limits assumed): as above
T3 sequence (P19491 22-883 isoform P19491-2 limits assumed): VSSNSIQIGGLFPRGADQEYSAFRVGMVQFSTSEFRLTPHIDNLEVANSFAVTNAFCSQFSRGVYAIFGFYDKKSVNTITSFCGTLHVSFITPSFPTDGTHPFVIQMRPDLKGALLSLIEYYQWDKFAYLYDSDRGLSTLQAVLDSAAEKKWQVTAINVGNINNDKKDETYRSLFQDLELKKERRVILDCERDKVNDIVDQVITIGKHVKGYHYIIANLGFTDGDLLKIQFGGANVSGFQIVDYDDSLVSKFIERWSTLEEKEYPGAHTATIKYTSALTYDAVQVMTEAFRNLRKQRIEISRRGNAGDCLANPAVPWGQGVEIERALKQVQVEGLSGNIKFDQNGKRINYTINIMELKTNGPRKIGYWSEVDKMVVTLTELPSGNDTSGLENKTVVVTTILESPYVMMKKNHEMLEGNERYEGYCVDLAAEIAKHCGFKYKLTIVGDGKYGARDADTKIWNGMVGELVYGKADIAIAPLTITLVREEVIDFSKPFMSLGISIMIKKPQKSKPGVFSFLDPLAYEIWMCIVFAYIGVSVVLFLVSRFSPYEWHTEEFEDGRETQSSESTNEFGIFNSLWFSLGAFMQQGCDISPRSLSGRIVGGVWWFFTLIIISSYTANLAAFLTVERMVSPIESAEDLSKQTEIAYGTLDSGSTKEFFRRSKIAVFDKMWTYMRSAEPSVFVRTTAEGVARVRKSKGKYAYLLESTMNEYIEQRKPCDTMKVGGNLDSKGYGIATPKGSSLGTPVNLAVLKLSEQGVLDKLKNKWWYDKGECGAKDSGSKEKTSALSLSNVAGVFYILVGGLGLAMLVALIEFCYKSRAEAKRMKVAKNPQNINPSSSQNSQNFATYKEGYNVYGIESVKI
T1 sequence (P19491 22-883 isoform P19491-2 limits assumed): as above
T4 sequence (P19491 22-883 isoform P19491-2 limits assumed): as above
T4 sequence (P19492 23-888 isoform P19492-2 limits assumed): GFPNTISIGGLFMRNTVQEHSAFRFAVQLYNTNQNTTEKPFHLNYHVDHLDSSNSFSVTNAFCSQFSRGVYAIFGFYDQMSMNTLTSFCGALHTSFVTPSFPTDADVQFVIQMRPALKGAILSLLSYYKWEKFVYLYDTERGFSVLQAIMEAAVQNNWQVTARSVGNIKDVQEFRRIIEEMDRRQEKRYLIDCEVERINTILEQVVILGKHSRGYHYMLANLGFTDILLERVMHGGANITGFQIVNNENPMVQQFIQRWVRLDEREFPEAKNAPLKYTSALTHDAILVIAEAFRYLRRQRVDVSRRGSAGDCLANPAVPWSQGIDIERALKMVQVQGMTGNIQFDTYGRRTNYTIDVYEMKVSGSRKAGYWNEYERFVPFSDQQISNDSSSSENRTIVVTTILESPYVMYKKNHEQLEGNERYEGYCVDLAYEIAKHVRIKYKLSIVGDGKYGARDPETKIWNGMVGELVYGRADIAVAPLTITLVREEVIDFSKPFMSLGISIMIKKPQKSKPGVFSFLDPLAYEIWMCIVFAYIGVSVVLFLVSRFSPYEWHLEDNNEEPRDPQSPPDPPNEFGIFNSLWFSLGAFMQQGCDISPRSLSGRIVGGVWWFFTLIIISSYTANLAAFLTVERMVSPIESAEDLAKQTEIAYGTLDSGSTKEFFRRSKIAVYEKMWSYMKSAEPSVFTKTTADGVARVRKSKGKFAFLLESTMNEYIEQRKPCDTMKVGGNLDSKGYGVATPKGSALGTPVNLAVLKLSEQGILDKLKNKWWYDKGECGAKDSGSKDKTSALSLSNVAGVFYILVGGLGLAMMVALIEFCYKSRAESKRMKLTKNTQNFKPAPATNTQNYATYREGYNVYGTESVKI

| SMILES | Amplitude with compound (GluA2) | A/AI (current amplitude ratio without/with compound) (GluA2) | t deact (weighted deactivation time constant) (GluA2) | t des (weighted desensitization time constant) (GluA2) | IC50 (GluA2) | pIC50 (GluA2) | Amplitude, applying glutamate alone after compound (GluA2) | Amplitude with compound (GluA1) | A/AI (current amplitude ratio without/with compound) (GluA1) | t deact (weighted deactivation time constant) (GluA1) | t des (weighted desensitization time constant) (GluA1) | IC50 (GluA1) | pIC50 (GluA1) | Amplitude, applying glutamate alone after compound (GluA1) | Amplitude with compound (GluA1/2) | A/AI (current amplitude ratio without/with compound) (GluA1/2) | t deact (weighted deactivation time constant) (GluA1/2) | t des (weighted desensitization time constant) (GluA1/2) | IC50 (GluA1/2) | pIC50 (GluA1/2) | further results |
| --- | --- | --- | --- | --- | --- | --- | --- | --- | --- | --- | --- | --- | --- | --- | --- | --- | --- | --- | --- | --- | --- |
| COc1cc([N+](=O)[O-])ccc1C1=NNC(=O)Cc2cc3c(cc21)OCO3 [2,3-BDZ-4, 1-(2-Methoxy-4-nitrophenyl)-7,8-(methylenedioxy)-3,5-dihydro-4H-2,3-benzodiazepin-4-one] | 364±17 pA | 3.68±0.1 | 2.7 ± 0.1 ms | 2.5 ± 0.1 ms | 6.76 µM | 5.17 | 1340±52 pA | 277±14 pA | 3.41±0.2 | 2.3 ± 0.1 ms | 2.2 ± 0.1 ms | 6.76 µM | 5.17 | 942±44 pA | 170±9 pA | 3.44±0.2 | 2.7 ± 0.2 ms | 5.0 ± 0.3 ms | 6.76 µM | 5.17 | Amplitude, applying glutamate alone after compound (GluA1/2): 583±40 pA; Amplitude with compound (GluA2/3): 146±14 pA; A/AI (current amplitude ratio without/with compound) (GluA2/3): 3.56±0.3; t deact (weighted deactivation time constant) (GluA2/3): 2.8 ± 0.2 ms; t des (weighted desensitization time constant) (GluA2/3): 2.6 ± 0.2 ms; IC50 (GluA2/3): 6.76 µM; pIC50 (GluA2/3): 5.17; Amplitude, applying glutamate alone after compound (GluA2/3): 516±23 pA; Effect on desensitization rate (AMPA receptor subunits): no change; Reduction in AMPAR subunit currents (AMPA receptor subunits): 3 fold; Effect on deactivation rate of the AMPAR subunits examined (AMPA receptor subunits): no change |
| COc1cc(N)ccc1C1=NNC(=O)Cc2cc3c(cc21)OCO3 [2,3-BDZ-2, 1-(2-Methoxy-4-aminophenyl)-7,8-(methylenedioxy)-3,5-dihydro-4H-2,3-benzodiazepin-4-one] | 127±12.0 pA | 10.42±0.8 | 5.1 ± 0.4 ms | 1.6 ± 0.05 ms | 3.39 µM | 5.47 | 1310±42 pA | 93±10.0 pA | 9.82±0.7 | 3.6 ± 0.3 ms | 1.8 ± 0.1 ms | 3.47 µM | 5.45 | 914±40 pA | 53±3.0 pA | 9.91±0.6 | 3.9 ± 0.4 ms | 3.8 ± 0.3 ms | 3.39 µM | 5.46 | Amplitude, applying glutamate alone after compound (GluA1/2): 523±33 pA; Amplitude with compound (GluA2/3): 52±7.0 pA; A/AI (current amplitude ratio without/with compound) (GluA2/3): 10.28±0.6; t deact (weighted deactivation time constant) (GluA2/3): 4.8 ± 0.5 ms; t des (weighted desensitization time constant) (GluA2/3): 1.7 ± 0.08 ms; IC50 (GluA2/3): 3.47 µM; pIC50 (GluA2/3): 5.46; Amplitude, applying glutamate alone after compound (GluA2/3): 532±26 pA; Reduction in AMPAR subunit currents (AMPA receptor subunits): approximately 10 fold; Effect on deactivation rate of the AMPAR subunits examined (AMPA receptor subunits): nearly doubles; Reduction in the desensitization rate of the investigated subunits (AMPA receptor subunits; 500 ms glutamate): 1–2 fold |
